{
  "source": "patent US12599628B2",
  "about": "“Mitigation of cryptosporidiosis using hydrogen peroxide-generating compositions” (Purina Animal Nutrition, LLC, priority 2021, dated 2026)",
  "key": {"[1]": {"tested_on": "C. parvum oocysts (Iowa isolate)", "assay": "Clinical calf cryptosporidiosis trial (oocyst shedding, body weight, feces, clinical scores)", "type": "in vivo, Cryptosporidium parvum", "settings": "for daily number of oocysts shed compared to control group: FIG. 3; for decrease in weight over the course of the trial: FIG. 5"}, "[2]": {"tested_on": "C. parvum oocysts", "assay": "Mouse Cryptosporidium challenge, infection level in intestines by qPCR", "type": "in vivo, Cryptosporidium parvum", "settings": "FIG. 2", "description": "Sodium percarbonate (“NPC”) at 0.26 mg/head, 12.5 mg/head, or 450 mg/head was tested in a Cryptosporidium challenge in mice. Eight-day-old ICR or CD-1 mice were divided into treatment (UA) and control (water) groups (n=10/group). Mice were infected with 1×10^4 C. parvum oocysts by oral inoculation. At the time of infection, and for every 12 hours thereafter, mice were treated with 100 μl per dose of NPC or water. A total of 8 doses per mouse were administered before termination of the challenge and collection of the intestines. The experiment was repeated twice (“Challenges I and II”). Infection levels were determined by qPCR against a known standard curve of C. parvum organisms."}, "[3]": {"tested_on": "C. parvum sporozoites excysted from oocysts shed by infected calves", "assay": "Infectivity of Cryptosporidium oocysts shed by treated calves, excysted and tested on HCT-8 cells", "type": "cell-based, Cryptosporidium parvum", "settings": "FIG. 8", "description": "(§1) HCT-8 (human ileocecal adenocarcinoma) cells were grown in a monolayer to 85-90% confluency in RPMI-1640 medium. Freshly excysted, washed C. parvum sporozoites were mixed with a sodium percarbonate treatment and then added to HCT-8 cells at 1.25×10^6 sporozoites per monolayer. The cells were incubated with the sporozoites for 2 hours at 10% CO2, 37° C. Cells were then washed and incubated in fresh media for 22 hours. Infected, untreated cells served as a control. After incubation, infected cells were harvested and DNA was isolated. The number of C. parvum were quantified using qPCR for the Cryptosporidium oocyst wall protein (COWP) gene.\nOocysts were collected from feces of calves in the control and treatment groups of Example 3 on multiple days during the duration of the study. The oocysts were excysted and analyzed to ensure equal excystation rates between the four treatment groups. HCT-8 cells were infected, harvested, and processed as described in Example 1."}, "[4]": {"tested_on": "C. parvum sporozoites", "assay": "In vitro Cryptosporidium exposure: C. parvum sporozoites mixed with treatment, added to HCT-8 cells, qPCR of COWP gene", "type": "cell-based", "settings": "all treatment concentrations (0.26, 2.08, 3.125, 6.25, 12.5, 18.75, 25, 450 mg/L); p<0.05; FIG. 1", "description": "as §1, with “Sodium percarbonate (0.26, 2.08, 3.125, 6.25, 12.5, 18.75, 25, or 450 mg/L) was tested for its ability to neutralize C. parvum sporozoites in host epithelial cells. HCT-8 (human” for “HCT-8 (human”"}},
  "data": [
    {"smiles": "O=C([O-])[O-].O=C([O-])[O-].OO.OO.OO.[Na+].[Na+].[Na+].[Na+]", "note": "[sodium percarbonate]", "values": [
      {"measurement": "daily number of oocysts shed compared to control group", "setting": "[1]; calves, 500 mg NPC BID in milk replacer, p<0.05", "result": "significantly fewer oocysts on Days 4-6 and 9-10 PI"},
      {"measurement": "reduction of mean total number of oocysts shed over the trial compared to control group", "setting": "[1]; calves, 500 mg NPC BID, Days 3-10 PI, p<0.05, FIG. 4", "result": "about 24%"},
      {"measurement": "daily number of oocysts shed compared to control group", "setting": "[1]; calves, 1000 mg NPC BID in milk replacer, p<0.05", "result": "significantly fewer oocysts on Days 6 and 10 PI"},
      {"measurement": "decrease in weight over the course of the trial", "setting": "[1]; infected calves, H-NPC (1000 mg NPC BID)", "result": 3.6, "unit": "%"},
      {"measurement": "decrease in weight over the course of the trial", "setting": "[1]; infected calves, L-NPC (500 mg NPC BID)", "result": 2.5, "unit": "%"},
      {"measurement": "weight loss compared to the control group", "setting": "[1]; infected calves, both NPC treatment groups (500 and 1000 mg BID)", "result": "tended to lose less weight"},
      {"measurement": "dose dependence of percent reduction in C. parvum infection", "setting": "[2]; mice, 0.26, 12.5, 450 mg/head", "result": "increased as treatment dose increased"},
      {"measurement": "percent reduction in C. parvum infection compared to control", "setting": "[2]; mice, 450 mg/head, 8 doses every 12 hours, oral", "result": 89.9, "unit": "%"},
      {"measurement": "ability of shed oocysts to infect HCT-8 cells compared with oocysts from untreated calves", "setting": "[3]; oocysts from calves treated with high-dose (1000 mg BID) sodium percarbonate", "result": "reduced ability to infect HCT-8 cells"},
      {"measurement": "ability of shed oocysts to infect HCT-8 cells compared with oocysts from untreated calves", "setting": "[3]; oocysts from calves treated with low-dose (500 mg BID) sodium percarbonate", "result": "reduced ability to infect HCT-8 cells"},
      {"measurement": "reduction in infection by C. parvum sporozoites of HCT-8 cells compared to untreated control", "setting": "[4]", "result": "significantly reduced infected"}
    ]}
  ]
}
